Measurements published in paper PMC2880635 (Biochemistry, 2009).
Substitutions are numbered along the chain they refer to. Each block holds one compound with its values, some of them ahead of it.

Experiments:
Sts-2PGM [1] = molecular target: T1, Sts-2PGM (Mus musculus, UniProt Q3V3E1); assay: biochemical
T1 sequence (Q3V3E1 354-624): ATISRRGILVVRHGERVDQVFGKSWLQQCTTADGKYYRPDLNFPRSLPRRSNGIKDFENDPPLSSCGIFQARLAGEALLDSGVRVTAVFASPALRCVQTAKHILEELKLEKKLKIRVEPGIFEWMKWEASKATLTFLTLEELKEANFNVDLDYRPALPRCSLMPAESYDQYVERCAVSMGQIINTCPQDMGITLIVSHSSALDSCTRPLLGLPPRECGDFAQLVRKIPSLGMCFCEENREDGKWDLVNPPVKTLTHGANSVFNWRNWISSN

Sts-1PGM = Sts-1PGM (Mus musculus, UniProt Q8BGG7); assay: pNPP hydrolysis by Sts-1PGM; assay type: biochemical; conditions: substrate pNPP
Sts-2PGM [2] = molecular target: T1, Sts-2PGM; assay: pNPP hydrolysis by wild-type Sts-2PGM; assay type: biochemical; conditions: substrate pNPP, Sts-2PGM wild-type
Sts-2PGM(E481V) = molecular target: T2, Sts-2PGM(E481V) (Mus musculus, UniProt Q3V3E1, E481V); assay: pNPP hydrolysis by Sts-2PGM; assay type: biochemical; conditions: substrate pNPP
T2 sequence (Q3V3E1 354-624 E481V): T1 sequence (Q3V3E1 354-624) with E128V

Sts-2PGM(S552A/S582Y) = molecular target: T3, Sts-2PGM(S552A/S582Y) (Mus musculus, UniProt Q3V3E1, S552A/S582Y); assay: pNPP hydrolysis by Sts-2PGM; assay type: biochemical; conditions: substrate pNPP
T3 sequence (Q3V3E1 354-624 S552A/S582Y): T1 sequence (Q3V3E1 354-624) with S199A, S229Y

Sts-2PGM(A446S/S552A) = molecular target: T4, Sts-2PGM(A446S/S552A) (Mus musculus, UniProt Q3V3E1, A446S/S552A); assay: pNPP hydrolysis by Sts-2PGM; assay type: biochemical; conditions: substrate pNPP, pH 7.5, relative to Sts-2PGM
T4 sequence (Q3V3E1 354-624 A446S/S552A): T1 sequence (Q3V3E1 354-624) with A93S, S199A

Sts-1PGM, sequence (Q8BGG7 369-638 limits assumed): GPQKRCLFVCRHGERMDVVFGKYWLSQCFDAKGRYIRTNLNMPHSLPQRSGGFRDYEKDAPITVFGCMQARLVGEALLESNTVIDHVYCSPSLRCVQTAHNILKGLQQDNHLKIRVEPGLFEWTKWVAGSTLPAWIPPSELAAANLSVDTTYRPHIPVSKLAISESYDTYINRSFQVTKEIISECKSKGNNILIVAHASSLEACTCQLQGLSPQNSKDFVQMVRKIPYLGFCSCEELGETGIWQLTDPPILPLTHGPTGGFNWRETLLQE

IC50 (Sts-2PGM [1]): 0.82 ± 0.1 mM
Ki (Sts-2PGM [1]): 0.54 ± 0.07 mM
Structure (SMILES): [O]=[W](=[O])([OH])[OH] [tungstate, sodium tungstate]

kcat (Sts-1PGM; pH 5.0, 37 °C): 63.4 s⁻¹
relative activity (Sts-1PGM; pH 5.0, relative to Sts-2PGM): 210000%
kcat (Sts-1PGM; pH 7.5, 37 °C): 70 s⁻¹
relative activity (Sts-1PGM; pH 7.5, relative to Sts-2PGM): 9400%
kcat (Sts-2PGM [2]; pH 5.0, 37 °C): 0.3 s⁻¹
relative activity (Sts-2PGM [2]; pH 5.0, relative to Sts-2PGM): 13.0%
relative activity (Sts-2PGM [2]; pH 7.5 (reference)): 1%
relative activity (Sts-2PGM(E481V); pH 5.0, relative to Sts-2PGM): 207%
relative activity (Sts-2PGM(E481V); pH 7.5, relative to Sts-2PGM): 10%
Km (Sts-2PGM(S552A/S582Y); pH 5.0, 37 °C): 600 µM
kcat (Sts-2PGM(S552A/S582Y); pH 5.0, 37 °C): 2.9 s⁻¹
relative activity (Sts-2PGM(S552A/S582Y); pH 5.0, relative to Sts-2PGM): 312%
relative activity (Sts-2PGM(A446S/S552A)): 28%
Structure (SMILES): O=[N+]([O-])c1ccc(OP(=O)(O)O)cc1 [pNPP, p-nitrophenyl phosphate]

Structure (SMILES): [O]=[V]([OH])([OH])[OH] [vanadate, sodium vanadate]
IC50 (Sts-2PGM [1]): 5.3 ± 3.3 mM
Ki (Sts-2PGM [1]): 3.55 ± 2.3 mM

IC50 (Sts-2PGM [1]): 52 ± 6.2 mM
Ki (Sts-2PGM [1]): 35.1 ± 4.1 mM
Structure (SMILES): O=P(O)(O)O [phosphate]
